We go through 1 compound from patent US8685658B2, “Compositions and methods for the treatment of diseases associated with aberrant cilia assembly and regulation” (Fox Chase Cancer Center, priority 2006, dated 2014).

SMILES strings stand for the structures.

The target of test [1] is AurB (Homo sapiens, UniProt Q96GD4). The conditions noted are these: cited from earlier work.
Test [2] has as its target FGFR1 (Homo sapiens, UniProt P11362). The conditions noted are these: cited from earlier work.
Test [3] has as its target T1, AurA (Homo sapiens, UniProt O14965).
T1 construct: endogenous AurA immunoprecipitated from mammalian cells; endogenous in cells; host or cells: hTERT-RPE1
T1 sequence (O14965 1-403): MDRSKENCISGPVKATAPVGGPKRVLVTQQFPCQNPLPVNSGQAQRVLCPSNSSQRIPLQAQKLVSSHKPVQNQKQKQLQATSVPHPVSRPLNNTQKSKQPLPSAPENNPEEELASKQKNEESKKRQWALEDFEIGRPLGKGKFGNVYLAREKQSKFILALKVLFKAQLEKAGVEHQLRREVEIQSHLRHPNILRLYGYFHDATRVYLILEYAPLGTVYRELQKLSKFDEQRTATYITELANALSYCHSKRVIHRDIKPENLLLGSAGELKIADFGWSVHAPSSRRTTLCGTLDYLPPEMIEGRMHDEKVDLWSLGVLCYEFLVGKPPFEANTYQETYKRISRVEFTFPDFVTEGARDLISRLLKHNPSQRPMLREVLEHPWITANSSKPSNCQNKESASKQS
As to the kind of experiment: AurA activation and HEF1 phosphorylation in serum-stimulated hTERT-RPE1 cells (Western blot). Format: cell-based. The conditions noted are these: vs DMSO, 2 and 24 hour time points after serum. As for the experimental part:
For microinjection, recombinant glutathione-S-transferase (GST), GST fused AurA mutants T288A and D274N) produced from BL21 (DE3) bacteria were purified using the MicroSpin GST Purification Module (Amersham Biotech.). Purified recombinant AurA was purchased from Upstate; this AurA was pre-activated based on incubation with ATP. […] To prepare lysates for Western blotting and IP, mammalian cells were disrupted by M-PER lysis buffer (Pierce) supplemented with EDTA-free protease inhibitor cocktail (Roche). Lysates used for IP were incubated overnight with antibody at 4° C., subsequently incubated for 2 hours with protein A/G-sepharose (Pierce), washed, and resolved by SDS-PAGE. Western blotting was performed using standard procedures and proteins visualized using the West-Pico system (Pierce). Antibodies used included mouse monoclonal antibody (mAb) anti-HEF1 2G9 (Pugacheva and Golemis, 2005), anti-α-tubulin mAb (Sigma), anti-AurA (BD Bioscience) for Western blotting, anti-AurA rabbit polyclonal (Cell Signaling) for IP, anti-Phospho-AurA/T288 (BioLegend), anti-Phospho-AurA/T288 (Cell Signaling), anti-HDAC6 rabbit polyclonal (Upstate; 1:5000), anti-HDAC2 rabbit polyclonal (Invitrogen) and mAb anti-β-actin (AC15, Sigma), anti-IFT88 and anti-IFT20. Secondary horseradish peroxidase (HRP)-conjugated antibodies were from Amersham Biotech. […]
On the technique in general: A western blot detects proteins with antibodies after separation by electrophoresis.

Test [4] has as its target T2, AurA-HDAC6 (Homo sapiens, UniProt O14965).
T2 construct: endogenous in cells; host or cells: hTERT-RPE1
T2 sequence (O14965 1-403): T1 sequence (O14965 1-403)
T2 sequence (Q9UBN7 1-1215 partner): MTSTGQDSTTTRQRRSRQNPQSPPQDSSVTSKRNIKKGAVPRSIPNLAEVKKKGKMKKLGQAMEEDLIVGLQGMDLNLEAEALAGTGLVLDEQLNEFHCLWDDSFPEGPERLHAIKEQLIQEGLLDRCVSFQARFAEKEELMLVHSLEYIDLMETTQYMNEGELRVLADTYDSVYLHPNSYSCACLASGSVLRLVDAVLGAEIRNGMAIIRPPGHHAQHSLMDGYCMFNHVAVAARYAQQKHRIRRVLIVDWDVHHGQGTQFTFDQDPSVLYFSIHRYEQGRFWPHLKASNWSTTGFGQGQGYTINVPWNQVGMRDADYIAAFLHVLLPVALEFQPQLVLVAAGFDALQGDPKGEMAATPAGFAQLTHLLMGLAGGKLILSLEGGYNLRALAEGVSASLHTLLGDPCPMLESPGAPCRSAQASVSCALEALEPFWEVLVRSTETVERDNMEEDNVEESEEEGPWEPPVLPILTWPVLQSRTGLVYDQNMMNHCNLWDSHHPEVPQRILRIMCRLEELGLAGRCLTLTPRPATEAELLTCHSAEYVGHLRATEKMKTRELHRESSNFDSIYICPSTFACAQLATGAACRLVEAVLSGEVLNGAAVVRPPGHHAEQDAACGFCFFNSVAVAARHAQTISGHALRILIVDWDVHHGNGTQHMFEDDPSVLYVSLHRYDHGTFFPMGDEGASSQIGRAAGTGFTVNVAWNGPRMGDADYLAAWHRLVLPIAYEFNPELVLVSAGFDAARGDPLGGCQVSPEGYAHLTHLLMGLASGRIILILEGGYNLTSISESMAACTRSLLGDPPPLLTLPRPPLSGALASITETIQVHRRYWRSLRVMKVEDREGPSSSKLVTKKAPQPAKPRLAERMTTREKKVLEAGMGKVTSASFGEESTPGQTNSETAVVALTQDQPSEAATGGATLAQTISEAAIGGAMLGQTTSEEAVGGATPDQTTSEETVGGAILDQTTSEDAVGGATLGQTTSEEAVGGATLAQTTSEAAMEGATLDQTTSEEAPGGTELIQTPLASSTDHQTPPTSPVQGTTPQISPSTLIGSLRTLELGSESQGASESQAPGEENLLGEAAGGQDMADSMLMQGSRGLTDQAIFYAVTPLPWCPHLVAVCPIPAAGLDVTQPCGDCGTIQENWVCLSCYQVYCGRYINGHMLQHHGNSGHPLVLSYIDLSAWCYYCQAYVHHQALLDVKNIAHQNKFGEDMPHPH
As to the kind of experiment: AurA-HDAC6 coimmunoprecipitation from hTERT-RPE1 cells. The test is classed as cell-based. The conditions noted are these: pre-treatment of cells with inhibitor. As for the experimental part:
For microinjection, recombinant glutathione-S-transferase (GST), GST fused AurA mutants T288A and D274N) produced from BL21 (DE3) bacteria were purified using the MicroSpin GST Purification Module (Amersham Biotech.). Purified recombinant AurA was purchased from Upstate; this AurA was pre-activated based on incubation with ATP. […] To prepare lysates for Western blotting and IP, mammalian cells were disrupted by M-PER lysis buffer (Pierce) supplemented with EDTA-free protease inhibitor cocktail (Roche). Lysates used for IP were incubated overnight with antibody at 4° C., subsequently incubated for 2 hours with protein A/G-sepharose (Pierce), washed, and resolved by SDS-PAGE. Western blotting was performed using standard procedures and proteins visualized using the West-Pico system (Pierce). Antibodies used included mouse monoclonal antibody (mAb) anti-HEF1 2G9 (Pugacheva and Golemis, 2005), anti-α-tubulin mAb (Sigma), anti-AurA (BD Bioscience) for Western blotting, anti-AurA rabbit polyclonal (Cell Signaling) for IP, anti-Phospho-AurA/T288 (BioLegend), anti-Phospho-AurA/T288 (Cell Signaling), anti-HDAC6 rabbit polyclonal (Upstate; 1:5000), anti-HDAC2 rabbit polyclonal (Invitrogen) and mAb anti-β-actin (AC15, Sigma), anti-IFT88 and anti-IFT20. Secondary horseradish peroxidase (HRP)-conjugated antibodies were from Amersham Biotech.

The test system of test [5] is hTERT-RPE1 cells. As to the kind of experiment: serum-induced ciliary disassembly in ciliated hTERT-RPE1 cells. Format: cell-based. As for the experimental part:
hTERT-RPE1 cells were grown in DMEM with 10% fetal bovine serum (FBS). For analysis of ciliary disassembly, cells were plated at 30% confluence in plates containing glass cover slips, and starved for 48 hours (in Opti-MEM or regular DMEM, without added serum) to induce cilia formation, followed by treatments described hereinbelow. For siRNA treatment, cells were initially plated in DMEM/10% FBS in plates containing cover slips, and 12 hours later siRNA transfection was performed in Opti-MEM with Oligofectamine (Invitrogen) according to manufacturer recommendations, and fixed 48 hours after transfection, following treatments indicated in Results. The remaining cells on plate were lysed, then either directly analyzed by Western blot analysis, or used for immunoprecipitation (IP)-kinase reaction to measure AurA activity.
Cells were fixed with 4% paraformaldehyde (10 min) then methanol (5 min), permeabilized with 1% Triton-X100 in PBS, blocked in 1×PBS, 3% BSA, and incubated with antibodies using standard protocols. Primary antibodies included rabbit polyclonal anti-Aurora A and anti-phospho-AuroraA/T288, (Cell Signaling), mouse mAb anti-HEF1 (14A11), polyclonal anti-γ-tubulin (Sigma), anti-α-tubulin mAb (Sigma), anti-acetylated α-tubulin mAb (clone 6-11B-1, Sigma, and clone K(Ac)40 Biomol), anti-IFT88 and anti-IFT20 (gifts of G. Pazour), mouse anti-glutamylated tubulin (Sigma), and anti-HDAC6 (Upstate). Secondary antibodies labeled with Alexa-488, Alexa-568, and Alexa-633, and TOTO-3 dye to stain DNA, were from Molecular Probes/Invitrogen. DNA was co-stained in some experiments by propidium iodine (Sigma) or Draq5 (Alexis), Confocal microscopy was performed using a Radiance 2000 laser scanning confocal microscope ((Carl Zeiss, Thornwood, N.Y.) coupled to a Nikon Eclipse E800 upright microscope (Nikon). Statistical analysis of data by one-way ANOVA was performed using GraphPad Instat 3.0 (San Diego, Calif.).

FGFR1, sequence (P11362 22-822, species assumed): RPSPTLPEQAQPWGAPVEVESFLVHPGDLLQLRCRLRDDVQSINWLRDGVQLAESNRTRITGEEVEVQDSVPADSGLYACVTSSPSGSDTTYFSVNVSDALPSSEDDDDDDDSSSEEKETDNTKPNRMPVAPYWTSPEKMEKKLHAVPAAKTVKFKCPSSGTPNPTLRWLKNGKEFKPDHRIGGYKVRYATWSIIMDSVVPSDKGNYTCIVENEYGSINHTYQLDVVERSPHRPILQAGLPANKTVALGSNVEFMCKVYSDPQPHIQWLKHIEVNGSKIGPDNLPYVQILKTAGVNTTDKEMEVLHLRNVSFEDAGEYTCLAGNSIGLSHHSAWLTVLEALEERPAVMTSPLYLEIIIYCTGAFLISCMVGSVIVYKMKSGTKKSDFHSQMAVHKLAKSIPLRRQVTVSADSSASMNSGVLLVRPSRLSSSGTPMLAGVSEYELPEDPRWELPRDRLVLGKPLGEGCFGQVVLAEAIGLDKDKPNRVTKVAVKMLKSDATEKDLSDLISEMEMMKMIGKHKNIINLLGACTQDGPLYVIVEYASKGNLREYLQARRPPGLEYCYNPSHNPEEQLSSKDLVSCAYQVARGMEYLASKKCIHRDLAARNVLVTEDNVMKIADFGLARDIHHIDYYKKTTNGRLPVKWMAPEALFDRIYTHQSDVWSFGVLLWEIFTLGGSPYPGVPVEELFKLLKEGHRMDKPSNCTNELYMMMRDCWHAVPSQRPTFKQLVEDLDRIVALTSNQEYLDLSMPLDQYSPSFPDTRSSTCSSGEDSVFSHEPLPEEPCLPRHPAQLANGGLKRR
AurB, sequence (Q96GD4 whole entry): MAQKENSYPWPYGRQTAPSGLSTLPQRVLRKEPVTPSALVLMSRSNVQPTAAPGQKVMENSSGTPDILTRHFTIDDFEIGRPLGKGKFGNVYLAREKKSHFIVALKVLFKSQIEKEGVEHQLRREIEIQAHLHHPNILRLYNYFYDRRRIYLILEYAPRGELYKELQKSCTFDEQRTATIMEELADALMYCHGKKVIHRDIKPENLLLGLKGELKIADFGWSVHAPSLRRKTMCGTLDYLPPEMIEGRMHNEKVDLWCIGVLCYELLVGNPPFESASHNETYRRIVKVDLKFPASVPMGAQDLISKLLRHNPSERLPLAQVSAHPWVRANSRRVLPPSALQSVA

As to `CCc1cccc(CC)c1NC(=O)N1Cc2n[nH]c(NC(=O)c3ccc(N4CCN(C)CC4)cc3)c2C1` [PHA-680632], the 50% inhibitory concentration (IC50) (usually the concentration that gives 50% inhibition) is 185 nM in test [1] and 390 nM in test [2]. In test [3], the “HEF1 phosphorylation (115 kDa form)” value is recorded as “blocks”. The “appearance of T288-phospho-AurA” value in test [3] was “blocks appearance”. In test [4], the AurA-HDAC6 coimmunoprecipitation entry is “not eliminated”. Besides, the “second wave of ciliary disassembly, at the time of mitosis” value in test [5] (500 nM, 18-24 hours after serum) is reported as “completely eliminated”. In addition, in test [5] (cells pre-treated for 3 hours with 500 nM, tracked 24 hours post serum), the “disassembly of cilia after serum stimulation” value was “strongly reduced”.
